The source of these data is patent publication US20140329905A1, “HISTONE DEACETYLASE 10-INHIBITOR CO-TREATMENT IN CANCER” (Deutsches Krebsforschungszentrum, priority 2011, published 2014).

Where two headings read alike, the source gives them in different places. Peptide text beside a SMILES is read from it. * marks the point of attachment. Cbz = O=C(OCc1ccccc1)*; CH2F = FC* A value given as a limit tells only on which side of the number the result lay.

The IC50 is the concentration that gives 50% inhibition.

The subject of assay [1] is BE(2)-C cells. Kind of assay: Caspase-3-like protease (DEVD-ase) activity assay. Type of assay: cell-based, human. To be noted: 6 d after HDAC10 siRNA; z-VAD 20 μM, 3-MA 2 mM. The procedure: Caspase-3-like protease activity assay. Caspase-3-like protease activity was measured with the Caspase-3 Fluorometric Assay (BioVision) according to the manufacturer's protocol modified as described previously (Oehme et al. (2006), op. cit.). For cell death detection adherent as well as floating cells were collected.

Assay [2] concerns BE(2)-C cells. The experiment in a line: Acridine orange FACS quantification of acidic lysosomes. To be noted: for accumulation of acidic lysosomes (red fluorescence) by a panel of HDAC inhibitors: FIG. 1B, each inhibitor at its applied concentration (Table 1). It is filed as cell-based, human. The procedure: For quantification of acidic lysosomes, the amount of green respectively red fluorescence was determined, since the acidification of (auto-)lysosomes causes a shift from green to red fluorescence. […] Therefore, the cytoplasm and nucleolus glow bright green, whereas acidic compartments shine bright red. By comparing the mean red-to-green fluorescence ratio within different cell populations, detection and quantification of the acidic compartment is possible. Cells were stained with phenol red-free medium containing 1 μg/ml acridine orange (Sigma) at 37° C. for 30 min, collected and resuspended in 300 μl phenolred-free medium for FACS analysis.

For another assay, the system named is astrocytes. The description is as above. It is filed as cell-based. Particulars: FIG. 1D; human astrocytes, compared with neuroblastoma cells. As for the experimental part:
For quantification of acidic lysosomes, the amount of green respectively red fluorescence was determined, since the acidification of (auto-)lysosomes causes a shift from green to red fluorescence. Acridine orange accumulates in lysosomal particles and the quenching of its fluorescence correlates with the DpH across the lysosomal membrane (Moriyama, Y, Takano, T and Ohkuma, S, (1982) Acridine orange as a fluorescent probe for lysosomal proton pump. J Biochem 92: 1333-6). Therefore, the cytoplasm and nucleolus glow bright green, whereas acidic compartments shine bright red. By comparing the mean red-to-green fluorescence ratio within different cell populations, detection and quantification of the acidic compartment is possible. Cells were stained with phenol red-free medium containing 1 μg/ml acridine orange (Sigma) at 37° C. for 30 min, collected and resuspended in 300 μl phenolred-free medium for FACS analysis. The green (510-530 nm) and the red (>650 nm) fluorescent emission of living cells, stimulated with blue laser (488 nm), were measured with FACSCalibur (Becton Dickinson, San José, Calif.) and analyzed with CellQuest Pro.

Assay [3] has as its system BE(2)-C cells. The experiment in a line: WST-1 metabolic activity assay. It is filed as cell-based, human. As for the experimental part:
(§1) WST-1 Assay. Metabolic activity was determined using the colorimetric WST-1 assay kit from Roche (Mannheim, Germany) as described in the manufacturer's manual.
(Tetrazolium dyes change colour on reduction, which living cells bring about.)

The subject of assay [4] is Neuroblastoma cells, medulloblastoma cells (BE(2)-C, Kelly, IMR32, Med8A). Kind of assay: WST-1 metabolic activity assay, tumor cells. It is filed as cell-based, human. Particulars: FIG. 13E; bufexamac 30 μM 6 d, co-treated with low-dose doxorubicin 72 h before assay. The procedure:
as §1

Assay [5] has as its target T1, HDAC10 (Homo sapiens, UniProt Q969S8).
T1 construct: Reaction Biology Corporation
T1 sequence (Q969S8 1-669): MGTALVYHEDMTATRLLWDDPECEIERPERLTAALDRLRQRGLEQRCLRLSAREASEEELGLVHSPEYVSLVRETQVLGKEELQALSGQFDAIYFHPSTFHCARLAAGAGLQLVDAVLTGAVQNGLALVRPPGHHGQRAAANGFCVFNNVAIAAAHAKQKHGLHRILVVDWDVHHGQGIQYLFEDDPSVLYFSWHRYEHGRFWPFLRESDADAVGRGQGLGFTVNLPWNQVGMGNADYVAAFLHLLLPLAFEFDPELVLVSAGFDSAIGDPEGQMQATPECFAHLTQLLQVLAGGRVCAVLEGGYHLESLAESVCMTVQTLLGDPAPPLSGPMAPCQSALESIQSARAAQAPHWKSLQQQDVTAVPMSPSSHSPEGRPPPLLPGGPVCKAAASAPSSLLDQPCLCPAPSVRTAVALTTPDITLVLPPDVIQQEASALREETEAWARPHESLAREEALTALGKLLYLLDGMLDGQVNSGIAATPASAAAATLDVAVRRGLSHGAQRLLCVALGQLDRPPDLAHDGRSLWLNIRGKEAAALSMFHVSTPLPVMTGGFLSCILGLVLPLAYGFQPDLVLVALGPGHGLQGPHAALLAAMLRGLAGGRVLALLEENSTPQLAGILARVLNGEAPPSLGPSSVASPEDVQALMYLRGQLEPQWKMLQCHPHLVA
Particulars: read-out: IC50 HDAC10 from literature; cited from earlier work.

The test system of assay [6] is BE(2)-C cells. The experiment in a line: ROS detection with CM-H2DCFDA by flow cytometry. It is filed as cell-based, human. To be noted: for effect on ROS production by HDAC10 targeting: 72 h after HDAC10 siRNA transfection. The procedure:
ROS generation was quantified using CM-H2DCFDA (Molecular Probes) according to the manufacturer's instructions. Cells were incubated for 20 min with 5 μM dye and fluorescence intensity was measured with FACSCalibur and analyzed with CellQuest Pro.

A further assay has as its system Kelly cells. The experiment in a line: WST-1 metabolic activity assay. To be noted: NAC on day 4 and 5, measured day 6. Type of assay: cell-based, human. As for the experimental part:
as §1

For assay [7], the target named is T1, HDAC10. The experiment in a line: In vitro HDAC10 activity assay by Reaction Biology Corporation. It is filed as biochemical. To be noted: read-out: IC50 HDAC10 from RBC. An excerpt: The inhibitory activity of compounds toward HDAC10 was investigated by Reaction Biology Corporation (Malvern, Pa., USA).
Assay [8] deals with BE(2)-C cells. The experiment in a line: Cell death by trypan blue staining. Type of assay: cell-based, human. Particulars: FIG. 13A; 0.01, 0.05, 0.1 μg/ml; 24, 48, 72 h; among BE(2)-C, Kelly, IMR32. As for the experimental part:
(§2) Viability assay. Trypsinized cells were pooled with corresponding supernatant, centrifuged and resuspended in 1.5 ml cell culture media. Cell viability was measured by automated trypan blue staining with Vi-Cell XR Cell Viability Analyzer from Beckman Coulter (Krefeld, Germany).

A further assay concerns IMR32 cells. Kind of assay: Cell death by trypan blue staining. Particulars: FIG. 13A, 0.01, 0.05, 0.1 μg/ml, 24, 48, 72 h, among BE(2)-C, Kelly. It is filed as cell-based, human. As for the experimental part:
as §2

The test system of assay [9] is BE(2)-C cells. Kind of assay: Western blot of p62 protein levels (autophagic flux). It is filed as cell-based, human. To be noted: FIG. 13C; high-dose doxorubicin 0.5 μg/ml, 48 h. As for the experimental part:
Western blot analysis was performed as described previously (Oehme et al. (2009), op. cit.). The following antibodies were used: anti-HDAC10 (Sigma), anti-LC3 (Sigma), anti-HDAC6 (Cell Signaling), anti-p62/SQSTM1 (MLB), anti-Hsc70 (Santa Cruz), anti-FLAG-M2 (Sigma) anti-GAPDH (Millipore), anti-Ac-Lysine (rabbit, Cell Signaling) and anti-β-Actin (clone AC-15, Sigma). β-Actin expression served as loading control. Ratios were calculated with the Bio-1D (Version 12.10a) Software. Protein extracts from primary neuroblastoma tumors from patients with the following characteristics were used: NB#1: […], stage 1, MYCN single copy. NB#2: […], stage 1, MYCN single copy. NB#3: […], stage 4, MYCN single copy. NB#4: […], stage 4, MYCN single copy.
A general note: Immunoblotting shows a protein as a band on a membrane.

`Cn1cnc(=N)c2[nH]cnc21` [3-MA]: in the assay on BE(2)-C cells [1], the “effect on HDAC10-knockdown mediated apoptosis (caspase-3 like activity)” value was “did not affect the induction of cell death upon targeting of HDAC10”.

`CO/C1=C\C(C)=C\[C@@H](C)[C@@H](O)[C@@H](C)C/C(C)=C/C=C/[C@H](OC)[C@@H]([C@@H](C)[C@@H](O)[C@H](C)[C@@]2(O)C[C@@H](O)[C@H](C)[C@@H](C(C)C)O2)OC1=O` [Bafilomycin A1]: the “effect on TSA-induced shift to red fluorescence” value in the assay on BE(2)-C cells [2] (FIG. 2, co-treatment Baf.A 10 nM with TSA 75 nM) is recorded as “inhibited the TSA-induced shift to red fluorescence”. Moreover, the “effect on lysosome acidification induced by HDAC10 knockdown” value in the assay on BE(2)-C cells [2] (FIG. 4A, Baf. A 10 nM, HDAC10 siRNA) is given as “blocked lysosome acidification induced by HDAC10 knockdown”.

Take `CCCCOc1ccc(CC(=O)NO)cc1` [Bufexamac, 2-(4-butoxyphenyl)-N-hydroxyacetamide]: the “accumulation of acidic lysosomes (red fluorescence) by a panel of HDAC inhibitors” value (shortened to “accumulation … of HDAC inhibitors”) with BE(2)-C cells [2] (BE(2)-C) is recorded as “significant increase in red fluorescence”. The “shift to red fluorescence (acidic lysosomes)” value with astrocytes is “very moderate shift to red fluorescence”. Moreover, in the assay on BE(2)-C cells [3] (BE(2)C cells), the “effect of bufexamac in NB cells compared to the knockdown of HDAC10 expression” value is “rather low”. Further, the “metabolic activity (WST-1)” value with BE(2)-C cells [3] (FIG. 9E, bufexamac 100 μM 3 days, co-treated with doxorubicin 0.1 μg/ml 24 h before assay) is recorded as “strongly reduced metabolic activity”; in [4], “significantly decreased metabolic activity”. Also, on HDAC10 [5], the IC50 was 12.3 µM.

`CCN(CC)CCCC(C)Nc1ccnc2cc(Cl)ccc12` (centres unmarked) [Chloroquine]: the “induction of acidic lysosomes and late endosomes” value with BE(2)-C cells [2] (FIG. 2, FIG. 5C, BE(2)-C, chloroquine 25 μM, rapamycin 100 nM) is “served as positive controls for the induction of acidic lysosomes and late endosomes”.

For `CC(=O)N(O)CCCCCNC(=O)CCC(=O)N(O)CCCCCNC(=O)CCC(=O)N(O)CCCCCN` [DFO], in the assay with BE(2)-C cells [6], the “effect on ROS production by HDAC10 targeting” value is recorded as “inhibited”.

Turning to `CC(=O)N[C@@H](CS)C(=O)O` [NAC], the “effect on ROS production by HDAC10 targeting” value in the assay on BE(2)-C cells [6] was “inhibited”. Further, the “viability (metabolic activity) upon HDAC10 knockdown” value (from here on “viability”) in the assay on BE(2)-C cells [3] (BE(2)-C, NAC on day 4 and 5, measured day 6) was “restored viability of NB cells”; in the assay on Kelly cells it was “restored viability of NB cells”.

For `CN(C)Cc1c(C(=O)NCCOc2ccc(C(=O)NO)cc2)oc2ccccc12` [PCI-24781, 3-(dimethylaminomethyl)-N-[2-[4-(hydroxycarbamoyl)-phenoxy]ethyl]-1-benzofuran-2-carboxamide], the “accumulation … of HDAC inhibitors” value in the assay with BE(2)-C cells [2] (BE(2)-C) is given as “significant increase in red fluorescence”.

Take `COc1ccc(Cn2ccc3ccc(C(=O)NO)cc32)cc1` [PCI-34051]: the “accumulation … of HDAC inhibitors” value with BE(2)-C cells [2] (BE(2)-C) is listed as “did not”.

Consider `Cc1[nH]c2ccccc2c1CCNCc1ccc(/C=C/C(=O)NO)cc1` [Panobinostat (LBH589), (2E)-N-hydroxy-3-[4-({[2-(2-methyl-1H-indol-3-yl)ethyl]amino}methyl)phenyl]acrylamide], for which the “accumulation … of HDAC inhibitors” value in the assay on BE(2)-C cells [2] (BE(2)-C) is given as “significant increase in red fluorescence”.

In the case of `CC(C=CC(=O)NO)=CC(C)C(=O)c1ccc(N(C)C)cc1` (centres unmarked) [TSA, 7-[4-(dimethylamino)phenyl]-N-hydroxy-4,6-dimethyl-7-oxohepta-2,4-dienamide], in the assay on BE(2)-C cells [2] (BE(2)-C), the “accumulation … of HDAC inhibitors” value is on record as “significant increase in red fluorescence”. Also, the ROS generation result in the assay on BE(2)-C cells [6] (TSA 75 nM, 24 h) is on record as “TSA-induced ROS generation”.

In the case of `O=C(CCCCCCC(=O)Nc1ccc([C@H]2O[C@@H](CSc3nc(-c4ccccc4)c(-c4ccccc4)o3)C[C@@H](c3ccc(CO)cc3)O2)cc1)NO` [Tubacin], the “accumulation … of HDAC inhibitors” value in the assay with BE(2)-C cells [2] (BE(2)-C) is listed as “did not increase the amount of red fluorescent cells”.

For the molecule `CCCC(CCC)C(=O)O` [VPA, valproic acid], the IC50 on HDAC10 [7] was greater than 10000 µM. The “accumulation … of HDAC inhibitors” value in the assay on BE(2)-C cells [2] (BE(2)-C) is listed as “did not increase the amount of red fluorescent cells”.

As for `O=C(CCCCCCC(=O)Nc1ccccc1)NO` [Vorinostat (SAHA), N-hydroxy-N′-phenyl-octanediamide], in the assay with BE(2)-C cells [2] (BE(2)-C), the “accumulation … of HDAC inhibitors” value was “significant increase in red fluorescence”.

Consider `COc1cccc2c1C(=O)c1c(O)c3c(c(O)c1C2=O)C[C@@](O)(C(=O)CO)C[C@@H]3O[C@H]1C[C@H](N)[C@H](O)[C@H](C)O1` [doxorubicin], for which the “sensitivity towards doxorubicin treatment (cell death, % trypan blue positive)” value with BE(2)-C cells [8] is on record as “highest resistance”; in the assay on IMR32 cells, “highest sensitivity”. Further, the “autophagic flux, measurable by p62 degradation” value with BE(2)-C cells [9] is on record as “enhanced autophagic flux”.

On to `CN1C(=O)C(Cc2c[nH]c3ccccc23)NC1=S` (centres unmarked) [necrostatin], for which the “viability” value with BE(2)-C cells [3] (6 d post-transfection, necrostatin 50 μM in combination with z-VAD 20 μM) was “completely rescue”.

On to `CC(NC(=O)C(NC(=O)OCc1ccccc1)C(C)C)C(=O)NC(CC(=O)O)C(=O)CF` (stereo not drawn) [zVAD] (Cbz-Val-Ala-Asp-CH2F; configuration not given here), for which the “effect on HDAC10-knockdown mediated apoptosis (caspase-3 like activity)” value in the assay on BE(2)-C cells [1] is recorded as “abolished HDAC10-knockdown mediated induction of apoptosis”. In the assay on BE(2)-C cells [3] (6 d post-transfection, z-VAD 20 μM on day 4 and 5), the “viability” value is “partly restored viability”.
